Turning to `COc1cc(S(=O)(=O)Nc2ccc3c[nH]nc3c2)ccc1Br`, the melting point is 199 to 201 °C.
In the case of `O=C(O)c1ncoc1CCC(F)(F)F` it was 139 to 141 °C; in that of `Cc1ccc2c(CC(=O)O)cc(=O)oc2c1`, 209 to 211 °C.
In the case of `N#Cc1c(N)cc(N)nc1S` it was 349 to 351 °C; in that of `O=C(O)C1(Br)CCC1`, 40 to 42 °C.
For `CCOC(=O)c1c(N)cc(OC)cc1OC`, the melting point fell in the range of 61 to 63 °C.
Next, `CCN(CC)S(=O)(=O)c1ccc(Cl)c(C(=O)O)c1`: 121 to 125 °C; `CC(=O)c1c(O)cc(F)cc1F`: 45 to 47 °C; `Cc1ccc(C)c(N2N=C(C(=O)O)CCC2=O)c1`: 149 to 151 °C.
Turning to `CC(O)Cc1ccc2ccccc2n1` (stereo unspecified), the melting point is 64 to 66 °C.
Next, `CCCC(C(=O)O)N1CCN(C(=O)OC(C)(C)C)CC1` (stereo unspecified): 149 to 151 °C; `N#CC=CS(=O)(=O)c1ccc(Cl)cc1`: 141 to 143 °C; `O=C(O)Cc1csc(-c2ccc(O)cc2)n1`: 97 to 99 °C.
Turning to `CC(Cl)C(=O)c1ccc(Cl)cc1` (stereo unspecified), the melting point fell in the range of 58 to 60 °C.
For `CC(O)c1cn(CC(=O)O)nn1` (stereo unspecified), the melting point lay within 134 to 136 °C.
In the case of `CC(=O)Nc1cncc(C(=O)NN)c1` it was 229 to 231 °C; in that of `NC1CCCCC1Nc1cnccn1` (stereo unspecified), 59 to 61 °C; in that of `COc1ccc(Br)cc1C(N)C(=O)O` (stereo unspecified), 163 to 165 °C.
In the case of `Cc1nccn1-c1ccc(N)cn1` it was 160 to 162 °C; in that of `CC(=O)Nc1ccsc1`, 146 to 148 °C; in that of `Nc1ccccc1-n1cnnn1`, 84 to 86 °C.
Next, `Cc1ccc2c(c1)nc(S)n2Cc1ccccc1Cl`: 189 to 191 °C; `CCn1c(SCC(=O)N2c3ccccc3Sc3ccccc32)nnc1-c1ccco1`: 152 to 154 °C.
For the molecule `O=S(=O)(Cl)c1cnc(Cl)nc1Cl`, the melting point lay within 96 to 98 °C.
In the case of `CC(N)CCc1ccc(O)cc1` (stereo unspecified) it was 111 to 113 °C.
In the case of `CC(N)c1ccc(NC(=O)c2ccncc2)cc1` (stereo unspecified) it was 159 to 161 °C; in that of `Nc1nc(CCl)nc2ccccc12`, 163 to 165 °C; in that of `COc1cccc(-n2nc(C)c(CCC(=O)O)c2C)c1`, 104 to 115 °C.
In turn, `O=C(O)CNC(=O)c1c(F)cccc1Cl` had a melting point of 197 to 199 °C.
Consider `Fc1cccc(-n2nnnc2S)c1`, for which the melting point was 128 to 146 °C.
In turn, `O=C(O)c1nn(-c2ccc(F)cc2)c2c1CCCCC2` had a melting point of 167 to 169 °C.
In the case of `CC(N)c1ccc(NC(=O)NC2CC2)cc1` (stereo unspecified) it was 142 to 144 °C; in that of `O=C(O)c1ccc(O)c(S(=O)(=O)Cl)c1`, 189 to 191 °C.
Next, `Sc1nnc(N2CCOCC2)s1`: 179 to 181 °C; `ClCc1ncc(-c2ccc(Br)cc2)o1`: 80 to 82 °C; `Nc1ccc2[nH]c(C(F)F)nc2c1`: 129 to 131 °C.
Take `COc1cc(C#N)ccn1`: the melting point lay in the range of 94 to 96 °C.
Next, `O=C(O)CSc1nnc(-c2ccc3ccccc3c2)o1`: 182 to 184 °C.
`OCc1c(Cl)nc(Cl)n1-c1ccccc1` came in with a melting point of 139 to 141 °C.
In the case of `CS(=O)(=O)c1ccc(F)c(S(C)(=O)=O)c1` it was 196 to 198 °C.
Turning to `N#CCN1CCc2ccc(N)cc21`, the melting point lay in the range of 87 to 89 °C.
Next, `Cc1cccc(C)c1OCC(=O)O`: 138 to 140 °C; `O=S(=O)(Cl)c1cc2c(cc1Br)OCCO2`: 173 to 175 °C; `Nc1cccc(NC(=O)CCn2cccn2)c1`: 104 to 106 °C.
Next, `COc1ncc(C(=O)O)cn1`: 219 to 221 °C.
Next, `Nc1ccn(-c2ncccc2Cl)n1`: 89 to 91 °C.
As to `Cc1cc(C(=O)CCl)c(C)n1-c1c(C)n(C)n(-c2ccccc2)c1=O`, the melting point lay within 160 to 162 °C.
Molecule `CCOC(=O)C=Cc1ccc2c(c1)OCO2` had a melting point of 66 to 68 °C.
Next, `CCn1cnnc1CNC(=O)OCC(F)(F)F`: 102 to 104 °C; `O=C(CCl)c1sccc1Br`: 75 to 77 °C; `Cc1ccc(-n2c(C)c(C)c3c(N)ncnc32)cc1`: 202 to 206 °C.
As to `Sc1nnc(-c2ccncc2)o1`, the melting point was 270 to 275 °C.
Next, `N#CCCSc1ccccc1N`: 45 to 47 °C.
Next, `Nc1c(-c2ccccc2)nc2sccn12`: 148 to 152 °C; `Cc1cc(Br)cc2c(O)c(C(=O)O)cnc12`: 299 to 301 °C; `CCN(CC)S(=O)(=O)c1ccc2c(c1)CCN2`: 80 to 82 °C.
`CCOC(=O)c1c(C)c2c(=O)[nH]nc(S)n2c1C` registered a melting point of 218 to 220 °C.
With `COc1ccc(C(=O)C=C(SC)SC)cc1`, the melting point fell in the range of 99 to 101 °C.
`N#CCc1ccnc(N)c1` returned a melting point of 104 to 106 °C.
Next, `O=C(O)c1csc(CCc2ccccc2)n1`: 132 to 134 °C; `Cc1nn(C)c2ncc(CCl)cc12`: 171 to 173 °C.
As to `COc1ccccc1C(=O)c1ccccc1Cl`, the melting point was in the range of 59 to 61 °C.
In the case of `CCS(=O)(=O)NCCS(=O)(=O)Cl` it was 68 to 70 °C; in that of `O=C(CO)N1CCOCC1`, 77 to 79 °C.
Next, `O=C(O)c1cc(Cl)ncc1[N+](=O)[O-]`: 178 to 180 °C; `O=C(O)c1cccc(OCc2cccs2)c1`: 147 to 149 °C; `O=C(Cc1ccccc1Cl)NCCCO`: 77 to 79 °C.
In the case of `CCOC(=O)c1nn(-c2ccccc2)cc1C=O` it was 99 to 101 °C.
Turning to `O=C(O)C1CCCN1C(=O)c1cc(Cl)cc(Cl)c1` (stereo unspecified), the melting point fell in the range of 162 to 164 °C.
In the case of `CCOc1ccc2nc(-c3ccc(N)cc3)sc2c1` it was 203 to 205 °C; in that of `Cc1cc(C)cc(C2(C(=O)O)CCC2)c1`, 132 to 134 °C.
In the case of `CCOc1cc(/C=C/C(=O)O)ccc1OCc1cccnc1` it was 201 to 203 °C.
Molecule `Cc1nc2sccn2c1CO` returned a melting point of 180 to 182 °C.
In the case of `O=C(O)c1cccnc1-n1ccnc1`, the melting point was in the range of 179 to 181 °C.
Next, `Sc1nnc(-c2c[nH]c3ccccc23)n1CC1CCCO1` (stereo unspecified): 251 to 253 °C; `Nc1ccc(NC(=O)Oc2ccccc2)cc1`: 135 to 137 °C; `Cc1cc(N)n(C2CC3CCC2C3)n1` (stereo unspecified): 59 to 61 °C.
For `O=c1[nH]nc(-c2ccc(F)cc2)c2ccccc12`, the melting point lay within 270 to 272 °C.
In the case of `Cn1ccnc1-c1cc(Cl)ccn1` it was 77 to 79 °C; in that of `NC(=O)Nc1ccc([N+](=O)[O-])cc1`, 224 to 226 °C.
Turning to `CC(NC(=O)OCc1ccccc1)C(=O)N1CCNC(=O)C1` (stereo unspecified), the melting point is 154 to 156 °C.
Next, `O=c1[nH]c2ccsc2c(=O)o1`: 218 to 220 °C; `CC(C)(C)Oc1ncccc1O`: 86 to 88 °C; `c1ccc(-c2cn[nH]c2)cc1`: 229 to 231 °C.
As for `CCc1cc(O)nc(CCl)n1`, the melting point lay in the range of 125 to 127 °C.
Next, `CNC(=O)c1cccc(N)n1`: 102 to 104 °C; `O=C1CCN(c2ccc(Cl)cc2)CC1`: 54 to 56 °C.
For `CC1CCCCC1Nc1nnc(S)s1` (stereo unspecified), the melting point was 133 to 135 °C.
Next, `Nc1cccc(S(=O)(=O)N2CCNC(=O)C2)c1`: 189 to 191 °C.
Next, `CN(C)CCN=C=S`: 35 to 37 °C; `CC1CC(C(=O)O)CCO1` (stereo unspecified): 44 to 46 °C.
Take `CC1CCN(Cc2ccc(N)cc2)CC1`: the melting point lay in the range of 61 to 63 °C.
In turn, `N#Cc1cccc(OCC(F)(F)F)n1` gave a melting point of 51 to 53 °C.
Next, `O=C(O)c1cc([N+](=O)[O-])cc([N+](=O)[O-])c1F`: 204 to 206 °C; `Fc1cccc2[nH]c(C3CCNCC3)nc12`: 229 to 231 °C.
Molecule `COc1ccc(-c2ccc(C#N)c(=O)[nH]2)cc1OC` registered a melting point of 272 to 274 °C.
Consider `COc1ccc2c(c1)CC(=O)NCC2`, for which the melting point is 151 to 153 °C.
In the case of `[N-]=[N+]=NC(C(=O)NC1CC1)c1ccc(F)cc1` (stereo unspecified) it was 53 to 55 °C; in that of `Cc1cc(C(=O)NC2CCCC2)ccc1N`, 146 to 148 °C; in that of `O=C(Nc1ccccc1C(=O)O)c1ccccc1I`, 204 to 206 °C.
`O=C1OCCc2cnc3ccnn3c21`: the melting point is 213 to 215 °C.
Next, `CCOC(=O)c1[nH]nc2ccc(Br)cc12`: 231 to 233 °C; `CC1CN(c2ccc(N)cc2C(F)(F)F)CC(C)O1` (stereo unspecified): 122 to 124 °C; `CC(=O)c1cccc(S(=O)(=O)N(C)C)c1`: 74 to 76 °C.
Next, `NC(=O)c1cnn(-c2ncccn2)c1N`: 256 to 258 °C; `CCNc1ccc(C(=O)O)cc1[N+](=O)[O-]`: 239 to 241 °C; `O=S(=O)(Cl)c1ccc(S(F)(F)(F)(F)F)cc1`: 82 to 84 °C.
In the case of `Nc1ncc(-c2ccccc2F)s1` it was 149 to 151 °C.
Consider `Cc1ccc(NS(C)(=O)=O)c(C(=O)O)c1`, for which the melting point was 195 to 197 °C.
Molecule `CC(=O)c1ccc(N(C)C)cc1` yielded a melting point of 105 to 107 °C.
Regarding `O=[N+]([O-])c1ccc(-c2cn3ccsc3n2)cc1`, the melting point is 284 to 286 °C.
On to `Fc1ccc(-c2nnc(S)o2)cc1`, for which the melting point fell in the range of 204 to 206 °C.
`Cc1csc2ccc(Cl)cc2c1=O` returned a melting point of 109 to 111 °C.
On to `NS(=O)(=O)c1ccc(S(=O)(=O)N2CCC(C(=O)O)CC2)cc1`, for which the melting point lay within 190 to 192 °C.
On to `O=C(O)C1CCc2nnc(C(F)F)n2C1` (stereo unspecified), for which the melting point was in the range of 215 to 217 °C.
Molecule `O=C(O)c1nccnc1C(=O)NCc1ccc(F)cc1` returned a melting point of 170 to 172 °C.
Next, `CCOc1cc(C(=O)O)ccc1OC(F)F`: 159 to 161 °C; `Cc1cc(C)c(O)c(C(=O)O)c1`: 172 to 174 °C; `O=C(Nc1ccc(Br)cc1)c1cccnc1Cl`: 150 to 152 °C.
In the case of `Sc1nncn1-c1ccccc1` it was 172 to 174 °C; in that of `COc1cc(C(=O)O)ccc1NN`, 149 to 151 °C.
